Laboratory results as given in US20250098679A1, “HERBICIDAL PYRIDONE DERIVATIVES” (SYNGENTA CROP PROTECTION AG, priority 2021, published 2025).

Assays:
Assay type in all cases: in vivo
Details in all cases: evaluated after 13 days
Setaria faberi (SETFA) [1] = test: Pre-emergence Test, Setaria faberi (SETFA)
[2] = system: Echinochloa crus-galli (ECHCG); test: Pre-emergence Test, Echinochloa crus-galli (ECHCG)
Zea mays (ZEAMX) [3] = test: Pre-emergence Test, Zea mays (ZEAMX)
[4] = system: Ipomoea hederacea (IPOHE); test: Pre-emergence Test, Ipomoea hederacea (IPOHE)
[5] = system: Amaranthus palmeri (AMAPA); test: Pre-emergence Test, Amaranthus palmeri (AMAPA)
[6] = system: Amaranthus retoflexus (AMARE); test: Pre-emergence Test, Amaranthus retoflexus (AMARE)
Setaria faberi (SETFA) [7] = test: Post-emergence Test, Setaria faberi (SETFA); set-up: key to percentage damage caused to the plant, SETFA (five-point scale): 5=81-100%, 4=61-80%, 3=41-60%, 2=21-40%, 1=0-20% damage
In short: (§1)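 Tested at 1000 g/ha unless otherwise stated. Plants were held at 24/16 °C day/night with a 14 h light period. Percent damage was read at 13 days and reported in five bands.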

[8] = system: Echinochloa crus-galli (ECHCG); test: Post-emergence Test, Echinochloa crus-galli (ECHCG); set-up: key to percentage damage caused to the plant, ECHCG (five-point scale): 5=81-100%, 4=61-80%, 3=41-60%, 2=21-40%, 1=0-20% damage
In short: as §1

Zea mays (ZEAMX) [9] = test: Post-emergence Test, Zea mays (ZEAMX); set-up: key to percentage damage caused to the plant, ZEAMX (five-point scale): 5=81-100%, 4=61-80%, 3=41-60%, 2=21-40%, 1=0-20% damage
In short: as §1

[10] = system: Ipomoea hederacea (IPOHE); test: Post-emergence Test, Ipomoea hederacea (IPOHE); set-up: key to percentage damage caused to the plant, IPOHE (five-point scale): 5=81-100%, 4=61-80%, 3=41-60%, 2=21-40%, 1=0-20% damage
In short: as §1

[11] = system: Amaranthus palmeri (AMAPA); test: Post-emergence Test, Amaranthus palmeri (AMAPA); set-up: key: 5=81-100%, 4=61-80%, 3=41-60%, 2=21-40%, 1=0-20% damage
In short: as §1

[12] = system: Amaranthus retoflexus (AMARE); test: Post-emergence Test, Amaranthus retoflexus (AMARE); set-up: key to percentage damage caused to the plant, AMARE (five-point scale): 5=81-100%, 4=61-80%, 3=41-60%, 2=21-40%, 1=0-20% damage
In short: as §1

SMILES | Pre-emergence Test SETFA, percentage damage caused to the plant (five-point scale) (Setaria faberi (SETFA) [1]; 1000 g/ha) | Pre-emergence Test ECHCG, percentage damage caused to the plant (five-point scale) ([2]; 1000 g/ha) | Pre-emergence Test ZEAMX, percentage damage caused to the plant (five-point scale) (Zea mays (ZEAMX) [3]; 1000 g/ha) | Pre-emergence Test IPOHE, percentage damage caused to the plant (five-point scale) ([4]; 1000 g/ha) | Pre-emergence Test AMAPA, percentage damage caused to the plant (five-point scale) ([5]; 1000 g/ha) | Pre-emergence Test AMARE, percentage damage caused to the plant (five-point scale) ([6]; 1000 g/ha) | percentage damage caused to the plant, SETFA (five-point scale) (Setaria faberi (SETFA) [7]; 250 g/Ha) | percentage damage caused to the plant, SETFA (five-point scale) (Setaria faberi (SETFA) [7]; 1000 g/ha) | percentage damage caused to the plant, ECHCG (five-point scale) ([8]; 250 g/Ha) | percentage damage caused to the plant, ECHCG (five-point scale) ([8]; 1000 g/ha) | percentage damage caused to the plant, ZEAMX (five-point scale) (Zea mays (ZEAMX) [9]; 250 g/Ha) | percentage damage caused to the plant, ZEAMX (five-point scale) (Zea mays (ZEAMX) [9]; 1000 g/ha) | percentage damage caused to the plant, IPOHE (five-point scale) ([10]; 250 g/Ha) | percentage damage caused to the plant, IPOHE (five-point scale) ([10]; 1000 g/ha) | percentage damage caused to the plant, AMAPA (five-point scale) ([11]; 250 g/Ha) | percentage damage caused to the plant, AMAPA (five-point scale) ([11]; 1000 g/ha) | percentage damage caused to the plant, AMARE (five-point scale) ([12]; 250 g/Ha) | percentage damage caused to the plant, AMARE (five-point scale) ([12]; 1000 g/ha) | further results
CCn1c(Cn2cc(Cl)cn2)cc(=O)c(C(=O)O)c1-c1ccc(Cl)c(Cl)c1 [Compound 14, 6-[(4-chloropyrazol-1-yl)methyl]-2-(3,4-dichlorophenyl)-1-ethyl-4-oxo-pyridine-3-carboxylic acid] | 5 (5=81-100%) | 5 (5=81-100%) | 0 | 0 | 1 (1=0-20%) | 1 (1=0-20%) | 2 (2=21-40%) | 4 (4=61-80%) | 1 (1=0-20%) | 4 (4=61-80%) | 1 (1=0-20%) | 1 (1=0-20%) | 3 (3=41-60%) | 3 (3=41-60%) | 1 (1=0-20%) | 3 (3=41-60%) | 1 (1=0-20%) | 1 (1=0-20%) | Pre-emergence Test SETFA, percentage damage caused to the plant (five-point scale) (Setaria faberi (SETFA) [1]; 250 g/Ha (*)): 3 (3=41-60%); Pre-emergence Test ECHCG, percentage damage caused to the plant (five-point scale) ([2]; 250 g/Ha (*)): 4 (4=61-80%); Pre-emergence Test ZEAMX, percentage damage caused to the plant (five-point scale) (Zea mays (ZEAMX) [3]; 250 g/Ha (*)): 0; Pre-emergence Test IPOHE, percentage damage caused to the plant (five-point scale) ([4]; 250 g/Ha (*)): 0; Pre-emergence Test AMAPA, percentage damage caused to the plant (five-point scale) ([5]; 250 g/Ha (*)): 0; Pre-emergence Test AMARE, percentage damage caused to the plant (five-point scale) ([6]; 250 g/Ha (*)): 0
CCn1c(Cn2cncn2)cc(=O)c(C(=O)O)c1-c1ccc(Cl)c(Cl)c1 [Compound 49, 2-(3,4-dichlorophenyl)-1-ethyl-4-oxo-6-(1,2,4-triazol-1-ylmethyl)pyridine-3-carboxylic acid] | 0 | 1 (1=0-20%) | 0 | 0 | 1 (1=0-20%) | 2 (2=21-40%) | 1 (1=0-20%) | 2 (2=21-40%) | 0 | 2 (2=21-40%) | 0 | 0 | 1 (1=0-20%) | 0 | 0 | 1 (1=0-20%) | 0 | 0 | 
CCn1c(Cn2cnc(OC)n2)cc(=O)c(C(=O)O)c1-c1ccc(Cl)c(Cl)c1 [Compound 44, 2-(3,4-dichlorophenyl)-1-ethyl-6-[(3-methoxy-1,2,4-triazol-1-yl)methyl]-4-oxo-pyridine-3-carboxylic acid] | 1 (1=0-20%) | 2 (2=21-40%) | 0 | 1 (1=0-20%) | 3 (3=41-60%) | 2 (2=21-40%) |  | 1 (1=0-20%) |  | 1 (1=0-20%) |  | 1 (1=0-20%) |  | 2 (2=21-40%) |  | 3 (3=41-60%) |  | 0 | 
